Reference: patent US20250179057A1, “MEK IMMUNE ONCOLOGY INHIBITORS AND THERAPEUTIC USES THEREOF” (Immuneering Corporation, priority 2022, published 2025)
Where “and” joins values, the source holds several entries; their conditions need not be identical. Equal entries are not always repeated.

tested on: phospho-ERK in A549 (KRAS G12S) cells; test: Cell-based pERK (pERK:tERK) in A549 cells; parameters: A549-pERK 10 uM, 2 h: unit not given here; details: 10 nM, 2 h; phospho- to total protein ratio normalized to DMSO control (Table 9)
Description: Media components, reagents and buffers for Western Blot: All cell culture media components were obtained from ThermoFisher Scientific. […] Laemmli sample loading 4× buffer (ThermoFisher Scientific, Cat No. NP0007). MOPS/SDS electrophoresis running buffer (GenScript, Cat No. M00138).
Subculture conditions: Adherent cells were grown to approximately 90% confluency, culture medium was aspirated and the cell layer was rinsed with PBS. […] Eight mL media was added, cells were spun down at 1000×g for 5 minutes. Cell pellet was re-suspended in 10 mL media and an appropriate volume was inoculated into a new culture flask.
Compound (drug) treatment: Cells were plated in a 6-well plate at a density of 250,000-300,000 cells/well in 3 mL media and incubated 37° C. in a humidified, 5% CO2 incubator. […] These solutions were added to the cells (3 uL/well), mixed by swirling the plate, and incubated at 37° C. in a humidified, 5% CO2 incubator for 2 hours.
Cell lysis and protein estimation: Cells were washed with PBS, and scraped in 50 μL of lysis buffer containing protease and phosphatase inhibitors. Cell lysates were stored at −20° C. Cell lysates were thawed and spun at 12,000 rpm for one minute, 3 ul of the supernatant was added to 500 μL of Coomassie blue reagent following by 500 μL of water. […] Protein standards were used (0-20 mg/mL) to calculate protein concentrations of test samples.
All samples were heated at 95° C. for 5 minutes, cooled to room temperature and spun down. […] After the run, gel was removed and protein transfer was done using iBlot for 7 minutes, as per manufacturer's recommendations. After the transfer, nitrocellulose membrane was incubated on a shaker in 5 mL of blocking buffer at room temperature for 1 hr. The blot was then incubated overnight on a shaker in 5 ml of blocking buffer containing 0.2% Tween-20 and primary antibody, at room temperature. Anti-phospho-STAT3 antibody was used at a dilution of 1:500, the other 3 primary antibodies were used at a dilution of 1:1000.
Next day, the blot was washed 3 times for 10 min each with 10 mL of TBST followed by incubation on a shaker in 5 ml of blocking buffer containing 0.2% Tween-20 and 0.5 ul of the IRDye labeled secondary antibodies, diluted 1:10000, at room temperature for 1 hr. The blot was then washed 3 times for 10 min each with 10 mL of TBST and dried between sheets of paper towels. Imaging was done using LICOR's Odyssey imaging system, quantitation was done using their software, Image Studio version 3.1.
Materials and Methods: A549 or A375 cells were seeded in 6-well plates at an appropriate seeding density on day 0. On day 2 or 3, after checking the health and confluency of cells, the media was aspirated and replaced with 1 mL media containing a predetermined concentration of compound and incubated for 2 hours. After 2 hours, the media was aspirated, and the cells washed 2 times with cold PBS. Cells were lysed on ice, with 50 uL 1×CST lysis buffer +1 mM PMSF for 5 minutes. After 5 minutes, cells were removed using a scraper and transferred to cold 1.5 mL tubes, and centrifuged for 10 min, 4° C., 14,000×g. Supernatant was gently removed and snap frozen in liquid nitrogen. Protein concentration of the lysate was determined using Bradford Reagent (analyzed using SpectraMax M2E) and diluted to 1 mg/mL or pERK or 1.5 mg/mL for pMEK analysis. […] All dilutions were in Milk-free antibody diluent.
They were grown in T75 flasks in DMEM containing 10% FBS and Pen-Strep. at 37° C. in a humidified, 5% CO2 incubator. The adherent cells were grown to about 90% confluency, culture medium was aspirated, and the cell layer was rinsed with PBS. […] Eight mL media was added, cells were spun down at 1000 g for 5 minutes. Cell pellet was re-suspended in 10 mL media and an appropriate volume was inoculated into a new culture flask. Cells were plated in a 6-well plate at a density of 250,000-300,000 cells/well in 3 mL media and incubated 37° C. in a humidified, 5% CO2 incubator.

Structure (SMILES) | A549-pERK (10 nM, 2 h)
CNS(=O)(=O)Nc1cccc(Cc2c(CN3CCN(C)CC3)c3ccc(OC(=O)N(C)C)cc3oc2=O)c1F [Compound 15] | 73.8
CNS(=O)(=O)Nc1cccc(Cc2c(CN3CCN(Cc4ccccc4)CC3)c3ccc(OC(=O)N(C)C)cc3oc2=O)c1F [Compound 16] | 91.6
CNS(=O)(=O)Nc1cccc(Cc2c(CNCC3CC3)c3ccc(OC(=O)N(C)C)cc3oc2=O)c1F [Compound 26] | 94.2
CNS(=O)(=O)Nc1cccc(Cc2c(CNCc3ccncc3)c3ccc(OC(=O)N(C)C)cc3oc2=O)c1F [Compound 29] | 96
CNS(=O)(=O)Nc1cccc(Cc2c(CNc3ccccc3)c3ccc(OC(=O)N(C)C)cc3oc2=O)c1F [Compound 30] | 54.3
CNS(=O)(=O)Nc1cccc(Cc2c(CNc3ccn[nH]3)c3ccc(OC(=O)N(C)C)cc3oc2=O)c1F [Compound 31] | 66.7
CNS(=O)(=O)Nc1cccc(Cc2c(CNCc3ccco3)c3ccc(OC(=O)N(C)C)cc3oc2=O)c1F [Compound 56] | 92.9
CNS(=O)(=O)Nc1cccc(Cc2c(CNCC(=O)N(C)C)c3ccc(OC(=O)N(C)C)cc3oc2=O)c1F [Compound 57] | 106 and 119
CNS(=O)(=O)Nc1cccc(Cc2c(CNCCN(C)C)c3ccc(OC(=O)N(C)C)cc3oc2=O)c1F [Compound 58] | 98.7 and 108
CNS(=O)(=O)Nc1cccc(Cc2c(CNCc3cccc(C(F)(F)F)c3)c3ccc(OC(=O)N(C)C)cc3oc2=O)c1F [Compound 59] | 105
CNS(=O)(=O)Nc1cccc(Cc2c(CN3CCN(C(C)C)CC3)c3ccc(OC(=O)N(C)C)cc3oc2=O)c1F [Compound 62] | 73
CNS(=O)(=O)Nc1cccc(Cc2c(CNC(C)c3ccccc3)c3ccc(OC(=O)N(C)C)cc3oc2=O)c1F (stereo not drawn) [Compound 63] | 88
CNS(=O)(=O)Nc1cccc(Cc2c(CN3CCN(C4CC4)CC3)c3ccc(OC(=O)N(C)C)cc3oc2=O)c1F [Compound 64] | 73
CNS(=O)(=O)Nc1cccc(Cc2c(CN3CCN(C(=O)c4ccccc4)CC3)c3ccc(OC(=O)N(C)C)cc3oc2=O)c1F [Compound 65] | 100
CNS(=O)(=O)Nc1cccc(Cc2c(CNCCC(F)(F)F)c3ccc(OC(=O)N(C)C)cc3oc2=O)c1F [Compound 66] | 104
CNS(=O)(=O)Nc1cccc(Cc2c(CN3CCN(S(C)(=O)=O)CC3)c3ccc(OC(=O)N(C)C)cc3oc2=O)c1F [Compound 68] | 68.9
CCN1CCN(Cc2c(Cc3cccc(NS(=O)(=O)NC)c3F)c(=O)oc3cc(OC(=O)N(C)C)ccc23)CC1=O [Compound 69] | 101
CNS(=O)(=O)Nc1cccc(Cc2c(CNCCCCO)c3ccc(OC(=O)N(C)C)cc3oc2=O)c1F [Compound 71] | 99.4
C#CCN(C)Cc1c(Cc2cccc(NS(=O)(=O)NC)c2F)c(=O)oc2cc(OC(=O)N(C)C)ccc12 [Compound 76] | 62.1
CNS(=O)(=O)Nc1cccc(Cc2c(CNc3ccn(C)n3)c3ccc(OC(=O)N(C)C)cc3oc2=O)c1F [Compound 89] | 83.7
CNS(=O)(=O)Nc1cccc(Cc2c(CNc3cn[nH]c3)c3ccc(OC(=O)N(C)C)cc3oc2=O)c1F [Compound 92] | 93.8
CNS(=O)(=O)Nc1cccc(Cc2c(CNc3nccs3)c3ccc(OC(=O)N(C)C)cc3oc2=O)c1F [Compound 94] | 93.5

Structure (SMILES) | A549-pERK (10 nM, 2 h)
CNS(=O)(=O)Nc1cccc(Cc2c(CN(C)c3cccc(Cl)c3)c3ccc(OC(=O)N(C)C)cc3oc2=O)c1F [Compound 95] | 80.2
CNS(=O)(=O)Nc1cccc(Cc2c(CNc3ccnn3C)c3ccc(OC(=O)N(C)C)cc3oc2=O)c1F [Compound 96] | 102
CNS(=O)(=O)Nc1cccc(Cc2c(CN(C)c3ccccc3Cl)c3ccc(OC(=O)N(C)C)cc3oc2=O)c1F [Compound 99] | 98.9
CCN(CC)C(=O)Oc1ccc2c(CN(C)C)c(Cc3cccc(NS(=O)(=O)NC)c3F)c(=O)oc2c1 [Compound 126] | 91.4
CNS(=O)(=O)Nc1cccc(Cc2c(CN(C)C)c3ccc(OC(=O)N4CCN(C)CC4)cc3oc2=O)c1F [Compound 127] | 110
CNS(=O)(=O)Nc1cccc(Cc2c(CN(C)C)c3ccc(Oc4ncccn4)cc3oc2=O)c1F [Compound 129] | 92.2
CNS(=O)(=O)Nc1cccc(Cc2c(CNCC(=O)O)c3cc(Cl)c(OC(=O)N(C)C)cc3oc2=O)c1F [Compound 133] | 88.1
CNS(=O)(=O)Nc1cccc(Cc2c(CN3CC4CC3CN4)c3ccc(OC(=O)N(C)C)cc3oc2=O)c1F (stereo not drawn) [Compound 138] | 96.9
CNS(=O)(=O)Nc1cccc(Cc2c(CN3CC(C)C3)c3ccc(OC(=O)N(C)C)cc3oc2=O)c1F [Compound 142] | 94.6
CNS(=O)(=O)Nc1cccc(Cc2c(CN3CC(C)(C)C3)c3ccc(OC(=O)N(C)C)cc3oc2=O)c1F [Compound 143] | 104
CNS(=O)(=O)Nc1cccc(Cc2c(CN3CC(Cl)C3)c3ccc(OC(=O)N(C)C)cc3oc2=O)c1F [Compound 145] | 104
CNS(=O)(=O)Nc1nccc(Cc2c(CN3CC(F)(F)C3)c3ccc(OC(=O)N(C)C)cc3oc2=O)c1F [Compound 149] | 69.1
CNS(=O)(=O)Nc1cccc(Cc2c(CN3CC4(COC4)C3)c3ccc(OC(=O)N(C)C)cc3oc2=O)c1F [Compound 152] | 70.5
CNS(=O)(=O)Nc1cccc(Cc2c(CN3CC(N(C)C)C3)c3ccc(OC(=O)N(C)C)cc3oc2=O)c1F [Compound 154] | 64
CN(C)C(=O)Oc1ccc2c(CN3CCC3)c(Cc3ccnc(NS(=O)(=O)C4CC4)c3F)c(=O)oc2c1 [Compound 155] | 84.9
CNS(=O)(=O)Nc1cccc(Cc2c(CN3CCC4(CN(C)C4)C3)c3ccc(OC(=O)N(C)C)cc3oc2=O)c1F [Compound 159] | 82.7
CNC1CN(Cc2c(Cc3cccc(NS(=O)(=O)NC)c3F)c(=O)oc3cc(OC(=O)N(C)C)ccc23)C1 [Compound 164] | 102
CNS(=O)(=O)Nc1cccc(Cc2c(CN3CC(N)C3)c3ccc(OC(=O)N(C)C)cc3oc2=O)c1F [Compound 165] | 104
CNS(=O)(=O)Nc1cccc(Cc2c(CN3CC(C#N)C3)c3ccc(OC(=O)N(C)C)cc3oc2=O)c1F [Compound 172] | 111
CNS(=O)(=O)Nc1cccc(Cc2c(CN3CC(C(N)=O)C3)c3ccc(OC(=O)N(C)C)cc3oc2=O)c1F [Compound 173] | 97.7
CNS(=O)(=O)Nc1cccc(Cc2c(CO)c3ccc(OC(=O)N(C)C)cc3oc2=O)c1F [Compound 180] | 75

same assay, conditions: 10 uM, 2 h; phospho- to total protein ratio normalized to DMSO control

Structure (SMILES) | A549-pERK 10 uM, 2 h
CNS(=O)(=O)Nc1cccc(Cc2c(CNCC(=O)N(C)C)c3ccc(OC(=O)N(C)C)cc3oc2=O)c1F [Compound 57] | 7.33
CNS(=O)(=O)Nc1cccc(Cc2c(CNC(N)=O)c3ccc(OC(=O)N(C)C)cc3oc2=O)c1F [Compound 105] | 7.39
CNS(=O)(=O)Nc1cccc(Cc2c(CNC(=O)OCCO)c3ccc(OC(=O)N(C)C)cc3oc2=O)c1F [Compound 106] | 27.88
CNS(=O)(=O)Nc1cccc(Cc2c(CNCC(=O)O)c3cc(Cl)c(OC(=O)N(C)C)cc3oc2=O)c1F [Compound 133] | 23.41

same assay, conditions: Phospho-ERK Screen in A549 (KRAS G12S); head 10 nM 2 h, title 10 μM for 2 hours

Structure (SMILES) | pERK:tERK (10 nM 2 h A549)
CC(C)CS(=O)(=O)Nc1cccc(Cc2c(CN3CCNCC3)c3cc(Cl)c(OC(=O)N(C)C)cc3oc2=O)c1F [Compound 168] | 50 (n = 2) and 53 (n = 2)
